# Experimental data taken from patent US9290476B2, “Methylene linked quinolinyl modulators of RORγt” (Janssen Pharmaceutica NV, priority 2012, dated 2016).
# Counter-ions that a name gives are not always drawn. Like-named read-outs stand apart in the source and are kept apart here.
# Key:
# [1] = test system: IL-17 production by CD4 T cells; assay: Human Th17 assay (IL-17 production by CD4 T cells under Th17 differentiation); type: cell-based; settings: read-out: Human Th17 Assay, IC50 μM
# Excerpt: The human Th17 assay tests the effect of RORγt modulatory compounds on IL-17 production by CD4 T cells under conditions which favor Th17 differentiation.
# Total CD4^+ T cells were isolated from the peripheral blood mononuclear cells (PBMC) of healthy donors using a CD4^+ T cell isolation kit II, following the manufacturer's instructions (Miltenyi Biotec). Cells were resuspended in a medium of RPMI-1640 supplemented with 10% fetal bovine serum, penicillin, streptomycin, glutamate, and β-mercaptoethanol and were added to 96-well plates at 1.5×10^5 per 100 μL per well. 50 μL of compound at titrated concentrations in DMSO were added into each well at final DMSO concentration at 0.2%. Cells were incubated for 1 hour, then 50 μL of Th17 cell differentiation medium was added to each well. The final concentrations of antibodies and cytokines (R&D Systems) in differentiation medium were: 3×10^6/mL anti-CD3/CD28 beads (prepared using human T cell activation/expansion kit, Miltenyi Biotec), 10 μg/mL anti-IL4, 10 μg/mL anti-IFNγ, 10 ng/mL IL1β, 10 ng/mL IL23, 50 ng/mL IL6, 3 ng/mL TGFβ and 20 U/mL IL2. Cells were cultured at 37° C. and 5% CO2 for 3 days. Supernatants were collected and the accumulated IL-17 in culture was measured by using MULTI-SPOT® Cytokine Plate following manufacture's instruction (Meso Scale Discovery). The plate was read using Sector Imager 6000, and IL-17 concentration was extrapolated from the standard curve. The IC50s were determined by GraphPad.
# human RORγt LBD = human RORγt LBD (Homo sapiens (Human), UniProt P51449); assay: RORγt reporter assay (GAL4-RORγt LBD luciferase in HEK293T cells); type: cell-based; settings: for RORγt reporter Assay, % inhibition @ 6 μM / IC50: HEK293T cells; for IC50: 24 hours compound treatment; for inhibition at 6 µM: HEK-293T, read-out: RORγt reporter Assay, % inhibition @ 6 μM, HEK293T cells, 6 μM
# Sequence of human RORγt LBD (P51449 258-518): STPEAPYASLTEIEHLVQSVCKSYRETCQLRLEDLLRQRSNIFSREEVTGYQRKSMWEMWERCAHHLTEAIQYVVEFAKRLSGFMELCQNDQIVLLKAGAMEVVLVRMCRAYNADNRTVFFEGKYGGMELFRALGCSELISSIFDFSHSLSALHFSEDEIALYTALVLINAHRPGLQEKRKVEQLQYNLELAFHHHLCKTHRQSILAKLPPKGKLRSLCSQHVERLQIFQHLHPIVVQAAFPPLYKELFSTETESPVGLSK
# In short: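 HEK293T cells transiently co-transfected with GAL4-DBD–wild-type human RORγt LBD (pBIND) and GAL4-responsive firefly luciferase reporter (pGL4.31); renilla luciferase from pBIND normalises transfection/viability. Cells in phenol-red-free DMEM, 5% lipid-reduced FCS, treated with compound 24 h. Firefly/renilla ratio plotted against compound concentration.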
# [2] = target: human RORγt ligand binding domain (RORγt LBD) (Homo sapiens (Human), UniProt P51449); assay: RORγt ThermoFluor assay (thermal shift binding affinity); settings: estimated from thermal shift
# Sequence of human RORγt ligand binding domain (RORγt LBD) (P51449 other isoform, or with tags, fused parts or gaps): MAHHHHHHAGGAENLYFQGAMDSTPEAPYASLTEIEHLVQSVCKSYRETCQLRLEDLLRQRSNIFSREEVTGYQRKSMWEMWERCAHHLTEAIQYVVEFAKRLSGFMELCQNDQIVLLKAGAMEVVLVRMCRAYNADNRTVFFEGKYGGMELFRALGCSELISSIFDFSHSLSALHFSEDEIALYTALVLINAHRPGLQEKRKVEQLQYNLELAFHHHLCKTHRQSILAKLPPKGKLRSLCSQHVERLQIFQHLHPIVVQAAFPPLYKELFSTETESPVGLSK
# In short: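 Thermal shift used 0.065 mg/mL RORγt LBD with 60 μM 1,8-ANS in 100 mM Hepes pH 7.0, 10 mM NaCl, 2.5 mM GSH and 0.002% Tween-20, heated at 1 °C/min. Fluorescence was excited at 380–400 nm and emission read at 500 nm.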
# [3] = human CD4+ T cells, IL-17 after 3 days
IC50 (human RORγt LBD) [µM],Kd [2] [µM],inhibition at 6 µM (human RORγt LBD) [%],SMILES,"IC50 ([1]; Homo sapiens, CD4+ T, 72 h) [µM]",other results
~7,0.016,77,"COc1ccc(Cc2c(Cl)nc3ccc(C(O)(c4ccc(Cl)cc4)c4cncn4C)cc3c2Cl)cc1 (stereo not shown) [Example 12, (4-Chlorophenyl)(2,4-dichloro-3-(4-methoxybenzyl)quinolin-6-yl)(1-methyl-1H-imidazol-5-yl)methanol.TFA]",,
0.0078,0.0019,99,"COc1nc2ccc(C(O)(c3ccc(C#N)cc3)c3cncn3C)cc2c(C#N)c1Cc1ccc(C(F)(F)F)cc1 (stereo not shown) [Example 96A, 6-((4-cyanophenyl)(hydroxy)(1-methyl-1H-imidazol-5-yl)methyl)-2-methoxy-3-(4-(trifluoromethyl)benzyl)quinoline-4-carbonitrile]",,
0.0021,0.00012,104,"COc1nc2ccc(C(O)(c3cnnn3C)c3cnc(C)n3C)cc2c(C#N)c1Cc1ccc(C(F)(F)F)cc1 (stereo not shown) [Example 81A, 6-((1,2-Dimethyl-1H-imidazol-5-yl)(hydroxy)(1-methyl-1H-1,2,3-triazol-5-yl)methyl)-2-methoxy-3-(4-(trifluoromethyl)benzyl)quinoline-4-carbonitrile]",,
0.21,0.0083,99,"Cn1cncc1C(O)(c1ccc(C(F)(F)F)nc1)c1ccc2nc(N3CCC3)c(Cc3ccc(-n4cccn4)cc3)c(Cl)c2c1 (stereo not shown) [Example 68A, (3-(4-(1H-Pyrazol-1-yl)benzyl)-2-(azetidin-1-yl)-4-chloroquinolin-6-yl)(1-methyl-1H-imidazol-5-yl)(6-(trifluoromethyl)pyridin-3-yl)methanol]",,
0.029,0.0025,100,"Cn1cncc1C(O)(c1ccc(C(F)(F)F)nc1)c1ccc2nc(N3CCC3)c(Cc3ccc(C(F)(F)F)cc3)c(Cl)c2c1 (racemic) [Example 92A, (2-(Azetidin-1-yl)-4-chloro-3-(4-(trifluoromethyl)benzyl)quinolin-6-yl)(1-methyl-1H-imidazol-5-yl)(6-(trifluoromethyl)pyridin-3-yl)methanol]",,
0.85,2.3,95,"COc1nc2ccc(C(N)(c3ccc(C)nc3C)c3cnnn3C)cc2c(Cl)c1Cc1ccc(C(F)(F)F)cc1 (single isomer, unassigned) [Example 87B, (4-Chloro-2-methoxy-3-(4-(trifluoromethyl)benzyl)quinolin-6-yl)(2,6-dimethylpyridin-3-yl)(1-methyl-1H-1,2,3-triazol-5-yl)methanamine]",,

# Continued, compound first:
SMILES,IC50 (human RORγt LBD) [µM],Kd [2] [µM],inhibition at 6 µM (human RORγt LBD) [%],"IC50 ([1]; Homo sapiens, CD4+ T, 72 h) [µM]",other results
"COc1nc2ccc(C(O)(c3ccc(C(F)(F)F)nc3)c3cncn3C)cc2c(Cl)c1Cc1ccc(C(F)(F)F)cc1 (single isomer, unassigned) [Example 62C, (4-Chloro-2-methoxy-3-(4-(trifluoromethyl)benzyl)quinolin-6-yl)(1-methyl-1H-imidazol-5-yl)(6-(trifluoromethyl)pyridin-3-yl)methanol]",,,,,IC50 [1]: 0.064 µM
"COc1nc2ccc(C(O)(c3ccc(Cl)cc3)c3cncn3C)cc2c(Cl)c1Cc1ccc(C#N)cc1 (single isomer, unassigned) [Example 63C, 4-((4-Chloro-6-((4-chlorophenyl)(hydroxy)(1-methyl-1H-imidazol-5-yl)methyl)-2-methoxyquinolin-3-yl)methyl)benzonitrile]",,,,0.038,
"COc1nc2ccc(C(O)(c3cnnn3C)c3cnc(C)n3C)cc2c(Cl)c1Cc1ccc(C(F)(F)F)cc1 (single isomer, unassigned) [Example 80C, (4-chloro-2-methoxy-3-(4-(trifluoromethyl)benzyl)quinolin-6-yl)(1,2-dimethyl-1H-imidazol-5-yl)(1-methyl-1H-1,2,3-triazol-5-yl)methanol]",,,,,"IC50 [1, 3]: 0.002 µM; RORγt reporter Assay, % inhibition @ 6 μM (human RORγt LBD): 93%"
"COc1nc2ccc(C(O)(c3cnnn3C)c3cnnn3C)cc2c(Cl)c1Cc1ccc(-n2cccn2)cc1 [Example 61, (3-(4-(1H-Pyrazol-1-yl)benzyl)-4-chloro-2-methoxyquinolin-6-yl)bis(1-methyl-1H-1,2,3-triazol-5-yl)methanol]",,,,0.0042,
"COc1nc2ccc(C(O)(c3cncn3C)C3CCN(C(C)=O)CC3)cc2c(Cl)c1Cc1ccc(-n2cccn2)cc1 (single isomer, unassigned) [Example 60C, 1-(4-((3-(4-(1H-Pyrazol-1-yl)benzyl)-4-chloro-2-methoxyquinolin-6-yl)(hydroxy)(1-methyl-1H-imidazol-5-yl)methyl)piperidin-1-yl)ethanone]",,,,,"IC50 [1, 3]: 0.16 µM"
"COc1nc2ccc(C(O)(c3ccc(C(F)(F)F)nc3)c3cncn3C)cc2c(Cl)c1Cc1ccc(-n2cccn2)cc1 (single isomer, unassigned) [Example 35C, (3-(4-(1H-pyrazol-1-yl)benzyl)-4-chloro-2-methoxyquinolin-6-yl)(1-methyl-1H-imidazol-5-yl)(6-(trifluoromethyl)pyridin-3-yl)methanol]",,,,,IC50 [1]: 0.051 µM
"COc1nc2ccc(C(O)(c3ccc(C(F)(F)F)nc3)c3cncn3C)cc2c(Cl)c1Cc1ccc(-n2cccn2)cc1 (single isomer, unassigned) [Example 35B, (3-(4-(1H-pyrazol-1-yl)benzyl)-4-chloro-2-methoxyquinolin-6-yl)(1-methyl-1H-imidazol-5-yl)(6-(trifluoromethyl)pyridin-3-yl)methanol]",,,,0.074,
"COc1nc2ccc(C(O)(c3ccc(C(F)(F)F)nc3)c3cncn3C)cc2c(Cl)c1Cc1ccc(-n2cccn2)cc1 (stereo not shown) [Example 35A, (3-(4-(1H-Pyrazol-1-yl)benzyl)-4-chloro-2-methoxyquinolin-6-yl)(1-methyl-1H-imidazol-5-yl)(6-(trifluoromethyl)pyridin-3-yl)methanol.TFA]",,,,0.3,
"COc1nc2ccc(C(O)(c3ccc(C(F)(F)F)nc3)c3cncn3C)cc2c(Cl)c1Cc1ccc(C(F)(F)F)cc1 (single isomer, unassigned) [Example 62B, (4-Chloro-2-methoxy-3-(4-(trifluoromethyl)benzyl)quinolin-6-yl)(1-methyl-1H-imidazol-5-yl)(6-(trifluoromethyl)pyridin-3-yl)methanol]",,,,0.1,
"COc1nc2ccc(C(O)(c3ccc(Cl)cc3)c3cncn3C)cc2c(Cl)c1Cc1ccc(-n2cccn2)cc1 (single isomer, unassigned) [Example 33C, (3-(4-(1H-pyrazol-1-yl)benzyl)-4-chloro-2-methoxyquinolin-6-yl)(4-chlorophenyl)(1-methyl-1H-imidazol-5-yl)methanol]",,,,0.067,
"COc1nc2ccc(C(O)(c3ccc(Cl)cc3)c3cncn3C)cc2c(Cl)c1Cc1ccc(-n2cccn2)cc1 (stereo not shown) [Example 33A, (3-(4-(1H-Pyrazol-1-yl)benzyl)-4-chloro-2-methoxyquinolin-6-yl)(4-chlorophenyl)(1-methyl-1H-imidazol-5-yl)methanol]",,,,0.14,
"CCN(CC)c1nc2ccc(C(O)(c3ccc(Cl)cc3)c3cncn3C)cc2c(Cl)c1Cc1ccc(-n2cccn2)cc1 (single isomer, unassigned) [Example 75B, (3-(4-(1H-Pyrazol-1-yl)benzyl)-4-chloro-2-(diethylamino)quinolin-6-yl)(4-chlorophenyl)(1-methyl-1H-imidazol-5-yl)methanol]",> 6,8.6,,,"RORγt reporter Assay, % inhibition @ 6 μM (human RORγt LBD): 39%"
"COc1nc2c(C)cc(C(O)(c3ccc(Cl)cc3)c3cncn3C)cc2c(Cl)c1Cc1ccc(-n2cccn2)cc1 (single isomer, unassigned) [Example 28B, (3-(4-(1H-pyrazol-1-yl)benzyl)-4-chloro-2-methoxy-8-methylquinolin-6-yl)(4-chlorophenyl)(1-methyl-1H-imidazol-5-yl)methanol]",1.1,1.6,90,,
"COc1nc2ccc(C(O)(c3cncn3C)C3CCN(C(C)=O)CC3)cc2c(Cl)c1Cc1ccc(-n2cccn2)cc1 (single isomer, unassigned) [Example 60B, 1-(4-((3-(4-(1H-Pyrazol-1-yl)benzyl)-4-chloro-2-methoxyquinolin-6-yl)(hydroxy)(1-methyl-1H-imidazol-5-yl)methyl)piperidin-1-yl)ethanone]",,,,,"IC50 ([1]; Homo sapiens, CD4+ T, 72 h, human CD4+ T cells, IL-17 after 3 days): 0.17 µM"
